“Also recorded” adds a separate entry of the source.
Experiments:
[1] = tested on: FRβ expression on human AML cell lines; experiment: ATRA treatment of AML cell lines, FRβ surface expression by flow cytometry; format: cell-based; settings: 10 nM ATRA
Procedure: AML cell lines were plated on d0 at 2.5×10^5 per mL in complete media with final concentration 10 nM ATRA. On d3 fresh media with 10 nM ATRA was added to keep cells at 2.5×10^5 per mL. On d5 viable AML cells were washed and counted with trypan blue exclusion. Cells were then stained for FRβ surface expression and analyzed by flow cytometry, processed for RNA extraction, or used in co-cultures for functional assays.
Tumor cell surface expression of FRβ was detected by m909-IgG antibody (Dimiter Dimitrov) conjugated to biotin (EZ-Link Biotinylation Kit, Thermo). To block Fc receptor binding, tumor cells were incubated with 50 ug/mL unlabeled human IgG (Jackson ImmunoResearch) for 10 min. 3-5 ug/mL m909-biotin or human IgG-biotin isotype control was added, and cells were labeled for 30 min at 4 degrees, washed with FACS buffer, and labeled with Streptavidin-APC (BD) for 25 min at 4 degrees. Cells were washed, resuspended with 7AAD, and analyzed by flow cytometry.

ATRA-treated THP1 = experiment: CAR T cell recognition of ATRA-treated AML cell lines (cytokine release); format: cell-based, human; settings: 10 nM ATRA
Procedure: These assays were performed by co-culture of 10^5 CAR+ T cells with 10^5 target cells per well (or media alone) in triplicate in 96-well plates in a 200 μL volume of complete media. After ˜24 hours, plates were centrifuged at 1200 RPM to pellet the cells, and co-culture supernatants were removed and assayed for the presence of IFN-γ by ELISA (Biolegend). Values represent the mean of triplicate wells. IL-2, IL-4, IL-10, IFN-γ, and TNF-α cytokines were measured by flow cytometry with Cytometric Bead Array (BD Biosciences). The cell pellets were then labeled with antibodies for CD3 and CD69, and assessed by flow cytometry. Live, CD3+ gates were used for analysis of CD69 upregulation. For m909 CAR T cells, GFP was used as a marker for CAR+ cells. In some cases cell pellets were labeled for FRβ surface expression following co-cultures.
AML cell lines were plated on d0 at 2.5×10^5 per mL in complete media with final concentration 10 nM ATRA. […] On d5 viable AML cells were washed and counted with trypan blue exclusion. Cells were then stained for FRβ surface expression and analyzed by flow cytometry, processed for RNA extraction, or used in co-cultures for functional assays.
Cell lines and CAR+ T cells were prepared as above (for cytokine release assays). […] Culture supernatants were then collected and analyzed for cytokines as described.

## CC1=C(/C=C/C(C)=C/C=C/C(C)=C/C(=O)O)C(C)(C)CCC1 [ATRA, all-trans retinoic acid]
[1]
  FRβ expression on AML cells: enhanced the intensity of FRβ expression on the AMLs; also recorded: increases FRβ expression; also recorded: enhanced surface expression of FRβ; also recorded: induced FRβ upregulation
ATRA-treated THP1
  IFNγ secretion by CAR T cells towards ATRA-treated AML cells: enhances; also recorded: IFNγ production
  immune recognition of ATRA-treated AML cells by FRβ CAR T cells: increased immune recognition by FRβ CAR T cells; also recorded: increased immune recognition by m909 CAR T cells; also recorded: enhances FRβ-mediated m909 CAR T cell recognition; also recorded: increases immune recognition

— patent US9446105B2, “Chimeric antigen receptor specific for folate receptor β” (THE TRUSTEES OF THE UNIVERSITY OF PENNSYLVANIA, priority 2013, dated 2016)
